Data: PubChem BioAssay AID1963442 (Molecular Pharmacology Branch, DTP, NCI, 2024)
pIC50: −log10 of the molar value. Several values for one entry are separate records, joined by “and”; a condition that tells them apart may be missing. Equal entries are not always repeated.

Test system: MPNST complex spheroid with HUVEC/MSC, growth, % test/control
Assay: Anticancer human tumor MPNST cell line growth inhibition [Asc];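 note: compounds left on spheroids for seven days before reading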
Conditions: for viability, T/C: stronger effect = lower value
How it was run: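 Complex solid-tumor spheroids incorporating human endothelial and mesenchymal stem cells received single agents or combinations over half-log dilution ranges anchored to clinical Cmax.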

[1] = curve of first compound, second compound 0.1 µM
[2] = curve of first compound, second compound 0.316 µM
[3] = curve of first compound, second compound 1 µM
[4] = second compound 0.1 µM, first compound 0.0316 µM
[5] = second compound 0.1 µM, first compound 0.1 µM
[6] = second compound 0.1 µM, first compound 0.316 µM
[7] = second compound 0.1 µM, first compound 1 µM
[8] = second compound 0.316 µM, first compound 0.0316 µM
[9] = second compound 0.316 µM, first compound 0.1 µM
[10] = second compound 0.316 µM, first compound 0.316 µM
[11] = second compound 0.316 µM, first compound 1 µM
[12] = second compound 1 µM, first compound 0.0316 µM
[13] = second compound 1 µM, first compound 0.1 µM
[14] = second compound 1 µM, first compound 0.316 µM
[15] = second compound 1 µM, first compound 1 µM
[16] = curve of first compound, second compound 3.16 µM
[17] = curve of first compound, second compound 10 µM
[18] = second compound 0.1 µM, first compound 0.00316 µM
[19] = second compound 0.1 µM, first compound 0.01 µM
[20] = second compound 0.316 µM, first compound 0.00316 µM
[21] = second compound 0.316 µM, first compound 0.01 µM
[22] = second compound 1 µM, first compound 0.00316 µM
[23] = second compound 1 µM, first compound 0.01 µM
[24] = second compound 3.16 µM, first compound 0.00316 µM
[25] = second compound 3.16 µM, first compound 0.01 µM
[26] = second compound 3.16 µM, first compound 0.0316 µM
[27] = second compound 3.16 µM, first compound 0.1 µM
[28] = second compound 10 µM, first compound 0.00316 µM
[29] = second compound 10 µM, first compound 0.01 µM
[30] = second compound 10 µM, first compound 0.0316 µM
[31] = second compound 10 µM, first compound 0.1 µM

## C=C(F)C(=O)N1CCN(c2nc(OCC3CCCN3C)nc3c2CCN(c2cccc4cccc(Cl)c24)C3)CC1CC#N (stereo unspecified) + CNC(C)C(=O)NC1CN(S(=O)(=O)c2cccc(S(=O)(=O)N3CCC4CCC(C(=O)NC(c5ccccc5)c5ccccc5)N4C(=O)C(NC(=O)C(C)NC)C3)c2)CCC2CCC(C(=O)NC(c3ccccc3)c3ccccc3)N2C1=O
Curve of first compound, second compound 0.00316 µM
  pIC50: 5.43
Curve of first compound, second compound 0.01 µM
  pIC50: 5.38
Curve of first compound, second compound 0.0316 µM
  pIC50: 5.74
[1]
  pIC50: 5.45
[2]
  pIC50: 5.46
[3]
  pIC50: 5.44
Second compound 0.00316 µM, first compound 0.0316 µM
  viability, T/C: 77%
Second compound 0.00316 µM, first compound 0.1 µM
  viability, T/C: 75.2%
Second compound 0.00316 µM, first compound 0.316 µM
  viability, T/C: 65.9%
Second compound 0.00316 µM, first compound 1 µM
  viability, T/C: 89.8%
Second compound 0.00316 µM, first compound 3.16 µM
  viability, T/C: 58.3%
Second compound 0.00316 µM, first compound 10 µM
  viability, T/C: 1.84%
Second compound 0.01 µM, first compound 0.0316 µM
  viability, T/C: 85.9%
Second compound 0.01 µM, first compound 0.1 µM
  viability, T/C: 75.9%
Second compound 0.01 µM, first compound 0.316 µM
  viability, T/C: 97.4%
Second compound 0.01 µM, first compound 1 µM
  viability, T/C: 85%
Second compound 0.01 µM, first compound 3.16 µM
  viability, T/C: 66.2%
Second compound 0.01 µM, first compound 10 µM
  viability, T/C: 0.9%
Second compound 0.0316 µM, first compound 0.0316 µM
  viability, T/C: 99.4%
Second compound 0.0316 µM, first compound 0.1 µM
  viability, T/C: 76.5%
Second compound 0.0316 µM, first compound 0.316 µM
  viability, T/C: 81.4%
Second compound 0.0316 µM, first compound 1 µM
  viability, T/C: 54.6%
Second compound 0.0316 µM, first compound 3.16 µM
  viability, T/C: 46.9%
Second compound 0.0316 µM, first compound 10 µM
  viability, T/C: 1%
[4]
  viability, T/C: 79.3%
[5]
  viability, T/C: 58.5%
[6]
  viability, T/C: 88.4%
[7]
  viability, T/C: 73.5%
Second compound 0.1 µM, first compound 3.16 µM
  viability, T/C: 55.6%
Second compound 0.1 µM, first compound 10 µM
  viability, T/C: 1.36%
[8]
  viability, T/C: 103%
[9]
  viability, T/C: 52.8%
[10]
  viability, T/C: 61%
[11]
  viability, T/C: 69.5%
Second compound 0.316 µM, first compound 3.16 µM
  viability, T/C: 57%
Second compound 0.316 µM, first compound 10 µM
  viability, T/C: 1.32%
[12]
  viability, T/C: 91.9%
[13]
  viability, T/C: 60.4%
[14]
  viability, T/C: 51%
[15]
  viability, T/C: 77.1%
Second compound 1 µM, first compound 3.16 µM
  viability, T/C: 56.8%
Second compound 1 µM, first compound 10 µM
  viability, T/C: 0.71%

## Cc1c(S(C)(=O)=O)c(-c2cc(F)cc(N3CCN(c4ccc(NS(=O)(=O)c5ccc(NC(CCN6CCC(C(=O)OCCCP(=O)(O)O)CC6)CSc6ccccc6)c(S(=O)(=O)C(F)(F)F)c5)cc4)CC3)c2)c(-c2ccc(Cl)cc2)n1C(C)C (stereo unspecified)
Compound alone, run of 10/11/2022
  pIC50: < 5.00

## O=C(c1ccc(F)c(F)c1Nc1ccc(I)cc1F)N1CC(O)([C@@H]2CCCCN2)C1 + Cc1c(S(C)(=O)=O)c(-c2cc(F)cc(N3CCN(c4ccc(NS(=O)(=O)c5ccc(NC(CCN6CCC(C(=O)OCCCP(=O)(O)O)CC6)CSc6ccccc6)c(S(=O)(=O)C(F)(F)F)c5)cc4)CC3)c2)c(-c2ccc(Cl)cc2)n1C(C)C
[1]
  pIC50: 6.52
[2]
  pIC50: 6.47
[3]
  pIC50: 6.59
[16]
  pIC50: 6.62
[17]
  pIC50: 6.74
[18]
  viability, T/C: 62.2%
[19]
  viability, T/C: 69.7%
[4]
  viability, T/C: 77.1%
[5]
  viability, T/C: 95.3%
[6]
  viability, T/C: 49%
[7]
  viability, T/C: 22.4%
[20]
  viability, T/C: 83%
[21]
  viability, T/C: 80.3%
[8]
  viability, T/C: 107%
[9]
  viability, T/C: 106%
[10]
  viability, T/C: 51.9%
[11]
  viability, T/C: 16.5%
[22]
  viability, T/C: 82.9%
[23]
  viability, T/C: 80.6%
[12]
  viability, T/C: 106%
[13]
  viability, T/C: 77%
[14]
  viability, T/C: 44.3%
[15]
  viability, T/C: 13.2%
[24]
  viability, T/C: 86.2%
[25]
  viability, T/C: 90.3%
[26]
  viability, T/C: 80.7%
[27]
  viability, T/C: 110%
Second compound 3.16 µM, first compound 0.316 µM
  viability, T/C: 36.6%
Second compound 3.16 µM, first compound 1 µM
  viability, T/C: 14.5%
[28]
  viability, T/C: 86.3%
[29]
  viability, T/C: 81.9%
[30]
  viability, T/C: 82.5%
[31]
  viability, T/C: 72.8%
Second compound 10 µM, first compound 0.316 µM
  viability, T/C: 28.8%
Second compound 10 µM, first compound 1 µM
  viability, T/C: 8.55%

## Cn1ncnc1[C@H]1c2n[nH]c(=O)c3cc(F)cc(c23)N[C@@H]1c1ccc(F)cc1 + Cc1c(S(C)(=O)=O)c(-c2cc(F)cc(N3CCN(c4ccc(NS(=O)(=O)c5ccc(NC(CCN6CCC(C(=O)OCCCP(=O)(O)O)CC6)CSc6ccccc6)c(S(=O)(=O)C(F)(F)F)c5)cc4)CC3)c2)c(-c2ccc(Cl)cc2)n1C(C)C
[1]
  pIC50: < 7.00
[2]
  pIC50: < 7.00
[3]
  pIC50: < 7.00
[16]
  pIC50: < 7.00
[17]
  pIC50: < 7.00
Second compound 0.1 µM, first compound 0.000316 µM
  viability, T/C: 78.7%
Second compound 0.1 µM, first compound 0.001 µM
  viability, T/C: 77.9%
[18]
  viability, T/C: 72.1%
[19]
  viability, T/C: 71.5%
[4]
  viability, T/C: 77.2%
[5]
  viability, T/C: 50.6%
Second compound 0.316 µM, first compound 0.000316 µM
  viability, T/C: 71.8%
Second compound 0.316 µM, first compound 0.001 µM
  viability, T/C: 74.6%
[20]
  viability, T/C: 80.4%
[21]
  viability, T/C: 97.1%
[8]
  viability, T/C: 66.9%
[9]
  viability, T/C: 59.8%
Second compound 1 µM, first compound 0.000316 µM
  viability, T/C: 84.7%
Second compound 1 µM, first compound 0.001 µM
  viability, T/C: 78.4%
[22]
  viability, T/C: 93.8%
[23]
  viability, T/C: 72.1%
[12]
  viability, T/C: 55.9%
[13]
  viability, T/C: 65.2%
Second compound 3.16 µM, first compound 0.000316 µM
  viability, T/C: 86.7%
Second compound 3.16 µM, first compound 0.001 µM
  viability, T/C: 75.8%
[24]
  viability, T/C: 72.6%
[25]
  viability, T/C: 63.3%
[26]
  viability, T/C: 61%
[27]
  viability, T/C: 56%
Second compound 10 µM, first compound 0.000316 µM
  viability, T/C: 100%
Second compound 10 µM, first compound 0.001 µM
  viability, T/C: 84.8%
[28]
  viability, T/C: 66.1%
[29]
  viability, T/C: 64.2%
[30]
  viability, T/C: 60.2%
[31]
  viability, T/C: 73.6%

## NC1CCC(NC2CC2c2ccccc2)CC1 (stereo unspecified)
Compound 0.000316 µM
  viability, T/C: 78.8% and 74.6% and 64.2%
Compound 0.001 µM
  viability, T/C: 78.6% and 79.4% and 71.8%
Compound 0.00316 µM
  viability, T/C: 76.3% and 81% and 80.4%
Compound 0.01 µM
  viability, T/C: 74% and 88.9% and 68.4%
Compound 0.0316 µM
  viability, T/C: 83.4% and 76.8% and 64.2%
Compound 0.1 µM
  viability, T/C: 78.2% and 98.4% and 47.2%
Curve of compound
  pIC50: < 7.00 and 7.08

## C=C(F)C(=O)N1CCN(c2nc(OCC3CCCN3C)nc3c2CCN(c2cccc4cccc(Cl)c24)C3)CC1CC#N (stereo unspecified)
Compound 0.0316 µM
  viability, T/C: 65.6% and 93.2% and 99.3%
Compound 0.1 µM
  viability, T/C: 75% and 68.3% and 86.5%
Compound 0.316 µM
  viability, T/C: 90.8% and 73% and 75.3%
Compound 1 µM
  viability, T/C: 85% and 68.2% and 94.8%
Compound 3.16 µM
  viability, T/C: 48.5% and 60.2% and 82.2%
Curve of compound
  pIC50: 5.52 and < 5.00
